≈ marks a conversion by molar mass, not a printed value. *1 amine or outer side, *2 acyl side, *3 side chain or, on linkers, in order; H or OH if unused. Where a SMILES comes first, the peptide text is derived from it. Bridges are numbered along the chain shown (N, C = ends). [ ]: non-standard residue; d: D form. ξ: configuration not given here. ξαMeNle(6-ylidene) = CC(CCCC=[*:3])(N[*:1])C(=O)[*:2]; X1 = CC(CCCCCCC=[*:3])(N[*:1])C(=O)[*:2]; Lys(N3) = [N-]=[N+]=NCCCC[C@H](N)C(=O)O; R8 = C=CCCCCCC[C@@](C)(N)C(=O)O; ξαMeE = CC(N)(CCC(=O)O)C(=O)O; Cba = N[C@@H](CC1CCC1)C(=O)O; S5 = C=CCCC[C@](C)(N)C(=O)O; βAla = NCCC(=O)O
Tests used:
[1] = tested on: Jump-In T-REx CHO-K1 BLA cells; assay: Tetracycline beta-lactamase reporter gene assay (counter screen); assay type: cell-based
Protocol: Based on Jump-In™ T-REx™ CHO-K1 BLA cells and contain a stably integrated β-lactamase under the control of an inducible CMV promoter. Cells were seeded into a 384-well plate a density of 4000 cells per well. Cells were maintained in Dulbecco's Minimal Eagle Medium (DMEM) with 10% fetal bovine serum (FBS), Blasticidin and Penicillin/Streptomycin. The cells were incubated for 24 hours, followed by cell media removal and replacement with Opti-MEM either containing 10% FBS or 0% FBS. Peptides were then dispensed to each well using a liquid handler, ECHO 555 and incubated for 4/16 hours. Final working concentration of DMSO was 0.5%. β-Lactamase activity was detected using the ToxBLAzer Dual Screen (Invitrogen) as per manufacturer's instructions. Measurements were carried out using Envision multiplate reader (Perkin Elmer). Counter Screen activity was defined as the amount of 0-lactamase activity induced by tetracycline.

Solubility (PBS, pH 7) = conditions: pH 7
[2] = target: T1, MDM2 (1-125; SEQ ID NO 14) (Homo sapiens, UniProt Q00987); assay: MDM2 binding assay (fluorescence anisotropy competition, FP)
T1 construct: GST (N); His6 (internal); TEV cleavage site ENLYFQG (internal); made in house; host or cells: E. coli BL21 (DE3) Rosetta T1R
Protocol: [P] is the protein concentration (MDM2), [L] is the labeled peptide concentration, r is the anisotropy measured, r0 is the anisotropy of the free peptide, rb is the anisotropy of the MDM2-FAM-labeled peptide complex, Kd is the dissociation constant, [L]t is the total FAM labeled peptide concentration, and [P]t is the total MDM2 concentration. […] The competing molecules were then titrated against the complex of the FAM-labeled peptide and protein. Apparent Kd values were determined by fitting the experimental data to the equations shown below:
[L]st and [L]t denote labeled ligand and total unlabeled ligand input concentrations, respectively. Kd2 is the dissociation constant of the interaction between the unlabeled ligand and the protein. In all competition experiments, it is assumed that [P]t>[L]st, otherwise considerable amounts of free labeled ligand would always be present and would interfere with measurements. […] The FAM-labeled peptide was dissolved in dimethyl sulfoxide (DMSO) at 1 mM and diluted into experimental buffer. Readings were carried out with an Envision Multilabel Reader (PerkinElmer). […] All titrations were carried out in triplicate. Curve-fitting was carried out using Prism 4.0 (GraphPad). […] Negative control titrations of the ligands under investigation were also carried out with the fluorescently labeled peptide (in the absence of MDM2) to ensure no interactions were occurring between the ligands and the FAM-labeled peptide.

HCT116 cells = assay: Lactate dehydrogenase release assay (LDH); assay type: cell-based
Protocol: HCT116 cells were seeded into a 384-well plate at a density of 8000 cells per well. Cells were maintained in McCoy's 5A Medium with 10% fetal bovine serum (FBS), Blasticidin and Penicillin/Streptomycin. The cells were incubated overnight followed by the removal of cell media and the addition of Opti-MEM Medium without FBS. Cells were then treated with peptides for 4/16 hours in Opti-MEM either in 10% FBS or serum free. Final concentration of DMSO was 0.5%. Lactate dehydrogenase release was detected using CytoTox-ONE Homogenous Membrane Integrity Assay Kit (Promega) as per manufacturer's instructions. Measurements were carried out using Tecan plate reader. Maximum LDH release was defined as the amount of LDH released induced by the lytic peptide (iDNA79) and used to normalize the results.

p53 null Ca Ski = conditions: for p53 null Ca Ski proliferation % Max: 72 h, 10% serum; for % inhibition at maximum concentration in p53 null negative control cell line: maximum assay concentration (50 uM)
HCT116 = conditions: for HCT116 proliferation % Max: 72 h, 10% serum; for EC50: read-out: cellular efficacy in cell proliferation HTC116 p53 positive control cell lines
[3] = tested on: p53 (HCT116 cells stably transfected with a p53 responsive β-lactamase reporter); assay: p53 beta-lactamase reporter gene cellular functional assay; assay type: cell-based
Protocol: HCT116 cells were stably transfected with a p53 responsive β-lactamase reporter, and were seeded into a 384-well plate at a density of 8,000 cells per well. Cells were maintained in McCoy's 5A Medium with 10% fetal bovine serum ([…]), Blasticidin and Penicillin/Streptomycin. The cells were incubated overnight and followed by removal of cell growth media and replaced with Opti-MEM either containing 0% FBS or 10% FBS. Peptides were then dispensed to each well using a liquid handler, ECHO 555 and incubated for 4/16 hours. Final working concentration of dimethyl sulfoxide (DMSO) was 0.5%. β-Lactamase activity was detected using the ToxBLAzer Dual Screen (Invitrogen) as per manufacturer's instructions. Measurements were done using Envision multiplate reader (Perkin-Elmer). Maximum p53 activity was defined as the amount of β-lactamase activity induced by 50 μM azide-ATSP-7041 (stapled p53 peptide; Aileron Therapeutics, Inc.). This was determined as the highest amount of p53 activity induced by azide-ATSP-7041 by titration on HCT116 cells.

T1 sequence (Q00987 with tags, fused parts or gaps): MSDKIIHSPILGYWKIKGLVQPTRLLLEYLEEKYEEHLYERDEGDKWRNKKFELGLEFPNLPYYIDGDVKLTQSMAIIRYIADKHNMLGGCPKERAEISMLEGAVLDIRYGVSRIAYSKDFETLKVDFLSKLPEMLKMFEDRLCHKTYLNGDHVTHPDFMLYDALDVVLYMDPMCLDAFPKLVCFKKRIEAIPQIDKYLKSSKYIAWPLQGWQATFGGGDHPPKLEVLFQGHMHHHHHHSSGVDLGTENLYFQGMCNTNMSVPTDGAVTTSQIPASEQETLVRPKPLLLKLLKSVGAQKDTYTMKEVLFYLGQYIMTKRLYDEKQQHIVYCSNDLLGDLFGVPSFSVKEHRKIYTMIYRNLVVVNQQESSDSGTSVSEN

## CC(=O)N[C@@H](CCCCN=[N+]=[N-])C(=O)NCCC(=O)N[C@@H](CC(C)C)C(=O)N[C@H](C(=O)N[C@@H](Cc1ccccc1)C(=O)NC1(C)CCCCCCC=CCCCC(C)(C(=O)N[C@@H](C)C(=O)N[C@@H](C)C(=O)N[C@@H](Cc2ccccc2)C(=O)N[C@@H](C)C(=O)NC(C)(CCC(=O)O)C(=O)N[C@@H](Cc2ccccc2)C(N)=O)NC(=O)[C@H](CC2CCC2)NC(=O)[C@H](CCC(N)=O)NC(=O)[C@H](C)NC(=O)[C@H](Cc2c[nH]c3ccccc23)NC(=O)[C@H](Cc2ccc(O)cc2)NC(=O)[C@H](CCC(=O)O)NC1=O)[C@@H](C)O (stereo partly drawn) [Macrocycle 9, Ac-K(N3)-betaAla-L-T-F-X1a-E-Y-W-A-Q-Cba-X2a-AAFA-(alpha-methyl-Glu)-F-NH2(olefinstaple from X1ato X2a)] (Ac-[Lys(N3)][βAla]LTF[X1]EYWAQ[Cba][ξαMeNle(6-ylidene)]AAFA[ξαMeE]F-NH2; staple 6-13)
[1]; 0% FBS, 4 h
  EC50: > 50 µM
[1]; 10% FBS, 16 h
  EC50: > 50 µM
HPLC LogD
  chromatographic logD: 2.93
Solubility (PBS, pH 7)
  solubility: 153 µM (≈ 366 µg/mL)

## CC(=O)N[C@@H](CCCCN=[N+]=[N-])C(=O)NCCC(=O)N[C@@H](CC(C)C)C(=O)N[C@H](C(=O)N[C@@H](Cc1ccccc1)C(=O)N[C@]1(C)CCCCCCC=CCCC[C@@](C)(C(=O)N[C@@H](C)C(=O)N[C@@H](C)C(=O)N[C@@H](Cc2ccccc2)C(=O)N[C@@H](C)C(=O)N[C@@H](C)C(=O)N[C@H](Cc2ccccc2)C(N)=O)NC(=O)[C@H](CC2CCC2)NC(=O)[C@H](CCC(N)=O)NC(=O)[C@H](C)NC(=O)[C@H](Cc2c[nH]c3ccccc23)NC(=O)[C@H](Cc2ccc(O)cc2)NC(=O)[C@H](CCC(=O)O)NC1=O)[C@@H](C)O [Macrocycle 5, Ac-K(N3)-betaAla-L-T-F-X1a-E-Y-W-A-Q-Cba-X2a-AAFAA-(D-Phe)-NH2(olefinstaple from X1ato X2a)] (Ac-[Lys(N3)][βAla]LTF[R8]EYWAQ[Cba][S5]AAFAA[dF]-NH2; staple 6-13)
[2]
  Kd: 0.056 µM
[1]; 0% FBS, 4 h
  EC50: > 50 µM
[1]; 10% FBS, 16 h
  EC50: > 50 µM
HPLC LogD
  logD: 4.12
HCT116 cells; 0% FBS, 4 h
  EC50: > 50 µM
HCT116 cells; 10% FBS, 16 h
  EC50: > 50 µM
Solubility (PBS, pH 7); PBS
  solubility: 9 µM (≈ 20.9 µg/mL)

## CC(=O)N[C@@H](CCCCN=[N+]=[N-])C(=O)NCCC(=O)N[C@@H](CC(C)C)C(=O)N[C@H](C(=O)N[C@@H](Cc1ccccc1)C(=O)N[C@]1(C)CCCCC#CC#CCCC[C@@](C)(C(=O)N[C@@H](C)C(=O)N[C@@H](C)C(=O)N[C@@H](C)C(=O)N[C@@H](C)C(=O)N[C@@H](C)C(=O)N[C@@H](C)C(N)=O)NC(=O)[C@H](CC2CCC2)NC(=O)[C@H](CCC(N)=O)NC(=O)[C@H](C)NC(=O)[C@H](Cc2c[nH]c3ccccc23)NC(=O)[C@H](Cc2ccc(O)cc2)NC(=O)[C@H](CCC(=O)O)NC1=O)[C@@H](C)O [Macrocycle 12, Ac-K(N3)-betaAla-L-T-F-X1b-E-Y-W-A-Q-Cba-X2b-AAAAAA-NH2 (di-alkyne staple from X1b to X2b)]
p53 null Ca Ski
  p53 null Ca Ski proliferation % Max: 3%
  % inhibition at maximum concentration in p53 null negative control cell line: 3%
p53 null Ca Ski; read-out: EC50 in p53 null negative control cell line
  EC50: > 50 µM
[1]; 0% FBS, 4 h
  EC50: > 50 µM
[1]; 10% FBS, 16 h
  EC50: > 50 µM
HCT116
  HCT116 proliferation % Max: 72%
  EC50: 0.124 µM
HPLC LogD
  chromatographic logD: 2.69
HCT116 cells; 0% FBS, 4 h
  EC50: > 50 µM
HCT116 cells; 10% FBS, 16 h
  EC50: > 50 µM

## CC(=O)N[C@@H](CCCCN=[N+]=[N-])C(=O)NCCC(=O)N[C@@H](CC(C)C)C(=O)N[C@H](C(=O)N[C@@H](Cc1ccccc1)C(=O)N[C@]1(C)CCCCCCC=CCCC[C@@](C)(C(=O)N[C@@H](C)C(=O)N[C@@H](C)C(=O)N[C@@H](C)C(=O)N[C@@H](C)C(=O)N[C@@H](C)C(=O)N[C@@H](C)C(N)=O)NC(=O)[C@H](CC2CCC2)NC(=O)[C@H](CCC(N)=O)NC(=O)[C@H](C)NC(=O)[C@H](Cc2c[nH]c3ccccc23)NC(=O)[C@H](Cc2ccc(O)cc2)NC(=O)[C@H](CCC(=O)O)NC1=O)[C@@H](C)O [Macrocycle 2, Ac-K(N3)-betaAla-L-T-F-X1a-E-Y-W-A-Q-Cba-X2a-AAAAAA-NH2 (olefin staple from X1a to X2a)] (Ac-[Lys(N3)][βAla]LTF[R8]EYWAQ[Cba][S5]AAAAAA-NH2; staple 6-13)
p53 null Ca Ski
  p53 null Ca Ski proliferation % Max: 29%
  % inhibition at maximum concentration in p53 null negative control cell line: 29%
[2]
  Kd: 0.0094 µM
[1]; 0% FBS, 4 h
  EC50: > 50 µM
[1]; 10% FBS, 16 h
  EC50: > 50 µM
HCT116
  HCT116 proliferation % Max: 89%
  EC50: 0.57 µM
HCT116 cells; 0% FBS, 4 h
  EC50: > 50 µM
HCT116 cells; 10% FBS, 16 h
  EC50: > 50 µM
[3]; 0% serum at 4 hours
  EC50: 0.143 µM
[3]; 10% serum at 16 hours
  EC50: 0.749 µM
[3]; versus Reference Macrocycle 1, both 0% serum at 4 hours and 10% serum at 16 hours
  fold improvement of cellular activity in p53 cellular assay: ~3.5 fold

## CC(=O)N[C@@H](CCCCN=[N+]=[N-])C(=O)NCCC(=O)N[C@@H](CC(C)C)C(=O)N[C@H](C(=O)N[C@@H](Cc1ccccc1)C(=O)N[C@]1(C)CCCCCCC=CCCC[C@@](C)(C(=O)N[C@@H](C)C(=O)N[C@@H](C)C(=O)N[C@@H](Cc2ccccc2)C(=O)N[C@@H](C)C(=O)N[C@@H](C)C(=O)N[C@H](C)C(N)=O)NC(=O)[C@H](CC2CCC2)NC(=O)[C@H](CCC(N)=O)NC(=O)[C@H](C)NC(=O)[C@H](Cc2c[nH]c3ccccc23)NC(=O)[C@H](Cc2ccc(O)cc2)NC(=O)[C@H](CCC(=O)O)NC1=O)[C@@H](C)O [Macrocycle 7, Ac-K(N3)-betaAla-L-T-F-X1a-E-Y-W-A-Q-Cba-X2a-AAFAA-(D-Ala)-NH2(olefinstaple from X1ato X2a)] (Ac-[Lys(N3)][βAla]LTF[R8]EYWAQ[Cba][S5]AAFAA[dA]-NH2; staple 6-13)
[2]
  Kd: 0.0042 µM
[1]; 0% FBS, 4 h
  EC50: > 50 µM
[1]; 10% FBS, 16 h
  EC50: > 50 µM
HPLC LogD
  logD: 3.59
HCT116 cells; 0% FBS, 4 h
  EC50: > 50 µM
HCT116 cells; 10% FBS, 16 h
  EC50: > 50 µM
Solubility (PBS, pH 7); PBS
  solubility: 2 µM (≈ 4.49 µg/mL)

## CC(=O)N[C@@H](CCCCN=[N+]=[N-])C(=O)NCCC(=O)N[C@@H](CC(C)C)C(=O)N[C@H](C(=O)N[C@@H](Cc1ccccc1)C(=O)N[C@]1(C)CCCCCCC=CCCC[C@@](C)(C(=O)N[C@@H](C)C(=O)N[C@@H](C)C(=O)N[C@@H](C)C(=O)N[C@@H](C)C(=O)N[C@@H](C)C(=O)N[C@@H](Cc2ccccc2)C(N)=O)NC(=O)[C@H](CC2CCC2)NC(=O)[C@H](CCC(N)=O)NC(=O)[C@H](C)NC(=O)[C@H](Cc2c[nH]c3ccccc23)NC(=O)[C@H](Cc2ccc(O)cc2)NC(=O)[C@H](CCC(=O)O)NC1=O)[C@@H](C)O [Macrocycle 6, Ac-K(N3)-betaAla-L-T-F-X1a-E-Y-W-A-Q-Cba-X2a-AAAAAF-NH2 (olefin staple from X1a to X2a)] (Ac-[Lys(N3)][βAla]LTF[R8]EYWAQ[Cba][S5]AAAAAF-NH2; staple 6-13)
[2]
  Kd: 0.0021 µM
[1]; 0% FBS, 4 h
  EC50: > 50 µM
[1]; 10% FBS, 16 h
  EC50: > 50 µM
HCT116 cells; 0% FBS, 4 h
  EC50: > 50 µM
HCT116 cells; 10% FBS, 16 h
  EC50: > 50 µM

From patent publication US20250034211A1, “C-TERMINAL EXTENDED P53 ACTIVATOR CROSSLINKED PEPTIDOMIMETIC MACROCYCLES AGAINST MDM2/MDMX” (Merck Sharp & Dohme LLC, priority 2021, published 2025)
